From patent US7674909B2, “Tetrahydroquinoline derivatives and their use as FSH receptor modulators” (N.V. Organon, priority 2002, dated 2010) come the findings set out here.

As a reminder, the EC50 is the concentration giving half of the maximal effect.

The experiment concerns the target T1, human FSH receptor (Homo sapiens, UniProt P23945).
T1 construct: expressed in transfected cells; host or cells: Chinese Hamster Ovary (CHO) cells, stably transfected, cotransfected with a CRE-luciferase reporter
T1 sequence (P23945 18-695): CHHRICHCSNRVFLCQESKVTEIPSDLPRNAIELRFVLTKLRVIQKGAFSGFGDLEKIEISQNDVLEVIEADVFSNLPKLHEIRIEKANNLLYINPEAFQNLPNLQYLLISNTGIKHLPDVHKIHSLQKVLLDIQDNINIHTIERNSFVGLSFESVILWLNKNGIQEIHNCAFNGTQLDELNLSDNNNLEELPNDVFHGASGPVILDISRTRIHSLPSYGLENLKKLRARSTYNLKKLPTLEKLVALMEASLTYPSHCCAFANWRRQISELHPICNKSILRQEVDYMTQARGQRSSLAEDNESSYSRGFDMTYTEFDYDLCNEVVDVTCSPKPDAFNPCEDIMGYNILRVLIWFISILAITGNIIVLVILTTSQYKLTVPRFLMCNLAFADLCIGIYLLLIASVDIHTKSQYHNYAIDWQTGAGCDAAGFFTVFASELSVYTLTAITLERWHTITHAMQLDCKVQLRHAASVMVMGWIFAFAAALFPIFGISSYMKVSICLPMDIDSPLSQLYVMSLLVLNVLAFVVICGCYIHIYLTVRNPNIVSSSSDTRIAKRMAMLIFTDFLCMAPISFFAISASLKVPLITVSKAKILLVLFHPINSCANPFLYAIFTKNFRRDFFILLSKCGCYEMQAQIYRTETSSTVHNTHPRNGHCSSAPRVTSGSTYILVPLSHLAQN
The experiment is described as follows: CHO-FSH in vitro bioactivity (CRE-luciferase reporter, agonistic or antagonistic set-up). The conditions noted are these: CHO cells stably transfected with human FSH receptor and CRE/luciferase reporter; in either an agonistic or an antagonistic (rec-hFSH 10 mU/ml) assay set-up or both / in at least one of the assays; read-out: EC50 (IC50). It is filed as cell-based. As to the method:
FSH activity of compounds were tested in Chinese Hamster Ovary (CHO) cells stably transfected with the human FSH receptor and cotransfected with a cAMP responsive element (CRE)/promotor directing the expression of a firefly luciferase reporter gene. Binding of ligand to the Gs-coupled FSH receptor will result in an increase of cAMP, which in turn will induce an increased transactivation of the luciferase reporter construct. To test antagonistic properties recombinant FSH in a concentration that induces approximately 80% of the maximal stimulation of cAMP accumulation in the absence of test compound was added (rec-hFSH; 10 mU/ml). The luciferase signal was quantified using a luminescence counter. For test compounds, EC50 values (concentration of test compound causing half-maximal (50%) stimulation or reduction) were calculated. For that purpose the software program GraphPad PRISM, version 3.0 (GraphPad software Inc., San Diego) was used.
With `CC(=O)N1c2ccc(NC(=O)c3ccc(-c4ccccc4)cc3)cc2C(C)(c2ccc(OCCCN3CCOCC3)cc2)CC1(C)C` (stereo not drawn) [Example 3, Biphenyl-4-carboxylic acid {1-acetyl-2,2,4-trimethyl-4-[4-(3-morpholin-4-yl-propoxy)-phenyl]-1,2,3,4-tetrahydro-quinolin-6-yl}-amide], the EC50 was less than 100 nM.

For the compound `CC(=O)N1c2ccc(NC(=O)c3ccc(-c4ccccc4)cc3)cc2C(C)(c2ccc(OCc3ccccn3)cc2)CC1(C)C` (stereo not drawn) [Example 4, Biphenyl-4-carboxylic acid {1-acetyl-2,2,4-trimethyl-4-[4-(pyridin-2-ylmethoxy)-phenyl]-1,2,3,4-tetrahydro-quinolin-6-yl}-amide], the EC50 is less than 100 nM. As for `CC(=O)N1c2ccc(NC(=O)c3ccc(-c4ccccc4)cc3)cc2C(C)(c2ccc(OCc3ccncc3)cc2)CC1(C)C` (stereo not drawn) [Example 7, Biphenyl-4-carboxylic acid {1-acetyl-2,2,4-trimethyl-4-[4-(pyridin-4-ylmethoxy)-phenyl]-1,2,3,4-tetrahydro-quinolin-6-yl}-amide], the EC50 is less than 100 nM. The result for `CC(=O)N1c2ccc(NC(=O)c3ccc(-c4ccccc4)cc3)cc2C(C)(c2ccc(OCC(=O)NCc3ccco3)cc2)CC1(C)C` (stereo not drawn) [Example 16] reads less than 100 nM.

As to `CC(=O)N1c2ccc(NC(=O)c3ccccc3)cc2C(C)(c2ccc(OCCN3CCOCC3)cc2)CC1(C)C` (stereo not drawn) [Example 36, N-{1-Acetyl-2,2,4-trimethyl-4-[4-(2-morpholin-4-yl-ethoxy)-phenyl]-1,2,3,4-tetrahydro-quinolin-6-yl}-benzamide], the 50% effective concentration (EC50) was less than 100 nM. Turning to `CC(=O)N1c2ccc(NC(=O)c3ccc(C(C)(C)C)cc3)cc2C(C)(c2ccc(OCCN3CCOCC3)cc2)CC1(C)C` (stereo not drawn) [Example 37, N-{1-Acetal-2,2,4-trimethyl-4-[4-(2-morpholin-4-ethoxy)-phenyl]-1,2,3,4-tetrahydro-quinolin-6-yl}-4-tert-butyl-benzamide], the EC50 was less than 100 nM. Then `CC(=O)N1c2ccc(NC(=O)c3ccc(Br)cc3)cc2C(C)(c2ccc(OCCN3CCOCC3)cc2)CC1(C)C` (stereo not drawn) [Example 39, N-{1-Acetyl-2,2,4-trimethyl-4-[4-(2-morpholin-4-yl-ethoxy)-phenyl]-1,2,3,4-tetrahydro-quinolin-6-yl}-4-bromo-benzamide], with less than 100 nM; and `CC(=O)N1c2ccc(NC(=O)c3ccc(N(C)C)cc3)cc2C(C)(c2ccc(OCCN3CCOCC3)cc2)CC1(C)C` (stereo not drawn) [Example 41, N-{1-Acetyl-2,2,4-trimethyl-4-[4-(2-morpholin-4-yl-ethoxy)-phenyl]-1,2,3,4-tetrahydro-quinolin-6-yl}-4-dimethylamino-benzamide], with less than 100 nM; and `CC(=O)N1c2ccc(NC(=O)c3cccc(C(F)(F)F)c3)cc2C(C)(c2ccc(OCCN3CCOCC3)cc2)CC1(C)C` (stereo not drawn) [Example 42, N-{1-Acetyl-2,2,4-trimethyl-4-[4-(2-morpholin-4-yl-ethoxy)-phenyl]-1,2,3,4-tetrahydro-quinolin-6-yl}-3-trifluoromethyl-benzamide], with less than 100 nM.
